Experimental data from patent US9617258B2, “Pyrrolo[2,3-d]pyrimidinyl, pyrrolo[2,3-b]pyrazinyl and pyrrolo[2,3-d]pyridinyl acrylamides” (Pfizer Inc., priority 2013, dated 2017).
Like-named read-outs stand apart in the source and are kept apart here.

Key:
[1] = Stability of JAK3 covalent inhibitors in human whole blood; type: in vitro ADME; settings: both sexes, 37° C., read-out: Human blood stability t1/2;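 note: parent compound remaining over incubation time quantified by LC-MS/MS as peak area ratio against an internal standard, using pooled K2-EDTA blood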
JAK3 enzyme [2] = target: T1, JAK3 enzyme (Homo sapiens (Human), UniProt P52333); assay: JAK Caliper enzyme assay at 4 μM ATP; type: biochemical
Experimental: (§1) JAK Caliper Enzyme Assay at 4 μM or 1 mM ATP
(§2) Test article was solubilized in dimethyl sulfoxide (DMSO) to a stock concentration of 30 mM. An 11-point half log dilution series was created in DMSO with a top concentration of 600 μM. […] The compound plates were diluted 1 to 60 resulting in a top final assay compound concentration of 10 μM and a 2% DMSO concentration.
(§3) Test article and assay controls were added to a 384-well plate. Reaction mixtures contained 20 mM HEPES, pH 7.4, 10 mM magnesium chloride, 0.01% bovine serum albumin (BSA), 0.0005% Tween 20, 4 μM or 1 mM ATP and 1 μM peptide substrate. […] The assays were initiated by the addition 1 nM JAK3 enzyme and were incubated at room temperature 75 minutes for JAK3. Enzyme concentrations and incubation times were optimized for each new enzyme preps and were modified slightly over time to ensure 20%-30% phosphorylation. The assays were stopped with a final concentration of 10 mM EDTA, 0.1% Coating Reagent and 100 mM HEPES, pH=7.4. The assay plates were placed on a Caliper Life Science Lab Chip 3000 (LC3000) instrument, and each well was sampled using appropriate separation conditions to measure the unphosphorylated and phosphorylated peptide.

JAK3 enzyme [3] = target: T1, JAK3 enzyme; assay: JAK Caliper enzyme assay at 1 mM ATP; type: biochemical
Experimental: as §1, §2, §3

[4] = system: IL-15 induced STAT5 phosphorylation in human whole blood lymphocytes; assay: HWB IL-15 induced STAT5 phosphorylation assay; type: cell-based; settings: Lymphocyte, IL-15 stimulated, read-out: HWB-IL15-pSTAT5 IC50
Experimental: HWB IL-15 Induced STAT5 Phosphorylation Assay
After mixing and incubating for 45 minutes at 37° C., 5 μl D-PBS (unstimulated control) or 20× stocks of 5 μl human IL-15 (final concentration is 50 ng/ml) were added, and mixed three times. After incubating 15 minutes at 37° C., 1× Lyse/Fix Buffer (BD Phosflow 5× Lyse/Fix Buffer) was added to all wells at 1000 μl/well, then incubated for 20 minutes at 37° C. and spun 5 mins at 1200 rpm. […] Following incubating at 4° C. over night, all the samples were transferred to 96-well polypropylene U-bottom plate, and checked by flow cytometry gated on total lymphocytes.

[5] = system: IL-15 induced P-STAT5 in human PBMC; assay: PBMC IL-15 induced P-STAT5; type: cell-based; settings: IL-15 stimulated, read-out: PBMC IL15-STAT5 IC50
Experimental: PBMC IL-15 Induced P-STAT5
Frozen human PBMC (200-250 million cells/vial) was thawed at 37° C. The cells were transferred to 10 mL warm medium in a 50-mL conical tube, and centrifuged at 1,200 RPM at room temperature for 5 min. The supernatant was aspirated. […] After adding 47 ml D-PBS (37° C.) to PBMC/FBS suspension, centrifuging at 1,200 RPM at room temperature for 5 min, and aspirating the supernatant, the cells were resuspended in 20 mL warm RPMI medium. Ninety μL of cell suspension were pipetted per well in a 96-well, deep-well, V-bottom plate, and the plate was incubated at 37° C. for 30 min. […] After adding 0.8 mL staining buffer per well, the plates were centrifuged at 1,200 RPM (Beckman GS-6R or Sorvall Legend) at room temperature for 5 min, and again the supernatant was aspirated using a 8-channel or 12-channel manifold. The plate was vortexed, and 0.35 mL 90% methanol/10% H2O (−20° C.) was added per well, and the plate incubated on ice for 20 min. After again adding 0.8 mL staining buffer per well, the plates were centrifuged at 1,200 RPM (Beckman GS-6R or Sorvall Legend) at room temperature for 5 min, and again the supernatant was aspirated using a 8-channel or 12-channel manifold, and then 0.8 mL Staining buffer was added per well. […] Samples were analyzed using a BD Calibur™ or BD FACSCanto™ flow cytometer equipped with the BD High Throughput Sampler.

T1 sequence (P52333 whole entry, species assumed): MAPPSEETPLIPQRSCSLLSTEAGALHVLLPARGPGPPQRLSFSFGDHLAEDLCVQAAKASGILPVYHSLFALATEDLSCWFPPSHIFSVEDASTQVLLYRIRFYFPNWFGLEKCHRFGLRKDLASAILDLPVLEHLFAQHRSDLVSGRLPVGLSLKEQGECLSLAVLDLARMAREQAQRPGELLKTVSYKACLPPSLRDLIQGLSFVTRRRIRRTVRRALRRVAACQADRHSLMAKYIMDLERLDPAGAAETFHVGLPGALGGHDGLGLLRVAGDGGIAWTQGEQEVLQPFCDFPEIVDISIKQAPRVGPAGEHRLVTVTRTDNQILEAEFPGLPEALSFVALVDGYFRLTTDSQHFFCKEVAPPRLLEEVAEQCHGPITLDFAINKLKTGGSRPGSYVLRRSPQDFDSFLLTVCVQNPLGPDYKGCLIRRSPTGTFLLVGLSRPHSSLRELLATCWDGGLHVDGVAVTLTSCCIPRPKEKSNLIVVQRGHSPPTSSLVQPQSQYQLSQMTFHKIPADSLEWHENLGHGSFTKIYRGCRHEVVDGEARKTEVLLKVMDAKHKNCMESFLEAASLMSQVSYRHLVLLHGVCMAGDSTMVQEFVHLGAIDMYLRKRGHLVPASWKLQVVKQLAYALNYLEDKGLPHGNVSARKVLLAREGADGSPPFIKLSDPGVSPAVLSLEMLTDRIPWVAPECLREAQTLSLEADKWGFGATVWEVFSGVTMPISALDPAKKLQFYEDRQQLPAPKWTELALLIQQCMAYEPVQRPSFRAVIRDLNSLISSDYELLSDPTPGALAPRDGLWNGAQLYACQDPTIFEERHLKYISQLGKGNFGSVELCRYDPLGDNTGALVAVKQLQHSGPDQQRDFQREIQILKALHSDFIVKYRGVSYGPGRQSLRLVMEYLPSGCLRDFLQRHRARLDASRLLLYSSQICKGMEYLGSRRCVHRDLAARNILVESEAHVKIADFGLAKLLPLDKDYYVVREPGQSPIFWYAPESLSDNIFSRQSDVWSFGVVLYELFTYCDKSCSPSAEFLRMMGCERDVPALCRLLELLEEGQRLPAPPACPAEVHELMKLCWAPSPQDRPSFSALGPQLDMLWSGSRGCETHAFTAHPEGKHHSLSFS

Compound	half-life at 1 μM ([1]; whole blood (fresh, pooled, K2-EDTA))	IC50 (JAK3 enzyme [2])	IC50 (JAK3 enzyme [3])	half-life at 1 μM ([1]; whole blood)	IC50 (JAK3 enzyme [2]; read-out: JAK3 (4 μM ATP) IC50)	IC50 (JAK3 enzyme [3]; read-out: JAK3 (1 mM ATP) IC50)	IC50 [4]	IC50 [5]
C=CC(=O)N1C[C@@H]2C[C@H]1CN2c1cnc2[nH]cc(C(=O)NC(C)C)c2n1 [Example 300, 2-[(1S,4S)-5-acryloyl-2,5-diazabicyclo[2.2.1]hept-2-yl]-N-(propan-2-yl)-5H-pyrrolo[2,3-b]pyrazine-7-carboxamide]	1.95 h	0.9 nM	84.4 nM	–	–	–	–	–
C=CC(=O)N1CCC[C@H](Nc2ncnc3[nH]ccc23)[C@H]1C (racemic) [Example 121, rac-1-((2R,3S)-3-((7H-Pyrrolo[2,3-d]pyrimidin-4-yl)amino)-2-methylpiperidin-1-yl)prop-2-en-1-one]	–	648 nM	> 10000 nM	> 6 h	–	–	–	–
O=C(C1=CCC1)N1CC[C@@H]2CCN(c3ncnc4[nH]ccc34)[C@@H]2C1 [Example 86, cyclobut-1-en-1-yl[(3aS,7aS)-1-(7H-pyrrolo[2,3-d]pyrimidin-4-yl)octahydro-6H-pyrrolo[2,3-c]pyridin-6-yl]methanone]	–	–	–	> 6 h	149 nM	> 10000 nM	–	–
C=CC(=O)N1C[C@H](Nc2ncnc3[nH]ccc23)CC[C@H]1CC [Example 124, 1-[(2R,5R)-2-Ethyl-5-(7H-pyrrolo[2,3-d]pyrimidin-4-ylamino)piperidin-1-yl]prop-2-en-1-one]	–	–	–	–	265 nM	> 10000 nM	–	–
C=CC(=O)N1C[C@H](Nc2ncnc3[nH]ccc23)[C@H]2CC[C@@H]1C2 (racemic) [Example 116, Rac-1-((1R,4R,5S)-4-(7H-pyrrolo[2,3-d]pyrimidin-4-ylamino)-2-azabicyclo[3.2.1]octan-2-yl)prop-2-en-1-one]	–	418 nM	> 10000 nM	–	–	–	> 10000 nM	> 10000 nM
